According to patent US9499550B2 (BRISTOL-MYERS SQUIBB COMPANY, priority 2012, dated 2016):
Read-outs that look alike come from different tables or passages of the source.

Legend:
[1] = tested on: HCV genotype 1b (Con1) replicon in HUH-7 cells; test: HCV replicon luciferase reporter assay, genotype 1b; type: cell-based; settings: Hepatitis C virus, Huh-7, 72 h, 3 days incubation
Outline: (§1)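 Replicon inhibition for both genotypes was measured as Renilla luciferase signal (EnduRen, 7.5 μM final, 2 h) after 3-day, 37° C exposure of replicon-bearing HUH-7 cells in 4% FCS DMEM, 0.5% DMSO. The 1b construct carries S1179I; the 1a H77 construct carries P1496L and S2204I. Twenty-point, 3-fold dilutions were fitted four-parametrically for EC50, and CC50 was taken from multiplexed Cell Titer-Blue.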

[2] = tested on: HCV genotype 1a (H77 strain) replicon in HUH-7 cells; test: HCV replicon luciferase reporter assay, genotype 1a; type: cell-based; settings: Hepatitis C virus, Huh-7, 72 h, 3 days incubation
Outline: as §1

[3] = HCV genotype 1b replicon luciferase assay, range class, read-out: LE_1b (EC50, range)
[4] = HCV genotype 1a replicon luciferase assay, range class, read-out: LE_1a (EC50, range)
[5] = GETYPE1B, HCV genotype 1b replicon luciferase, read-out: LE_1b (EC50, range)
[6] = GETYPE1A, HCV genotype 1a replicon luciferase, read-out: LE_1a (EC50, range)
[7] = HCV genotype 1b replicon luciferase, read-out: LE_1b (EC50, range)
[8] = HCV genotype 1a replicon luciferase, read-out: LE_1a (EC50, range)

Structure (SMILES) | EC50 [1, 3] [nM] | EC50 [2, 4] [nM] | also measured
COc1ccc2c(O[C@@H]3C[C@H]4C(=O)N[C@]5(C(=O)NS(=O)(=O)C6CC6)C[C@H]5/C=C\CC[C@H](C)C[C@@H](C)[C@H](NC(=O)OC(C)(C)C(F)(F)F)C(=O)N4C3)nc(-c3ccc(F)cc3)cc2c1 [Compound 3043, 1,1,1-trifluoro-2-methylpropan-2-yl((2R,6S,7R,9S,13aS,14aR,16aS,Z)-14a-((cyclopropylsulfonyl)carbamoyl)-2-((3-(4-fluorophenyl)-6-methoxyisoquinolin-1-yl)oxy)-7,9-dimethyl-5,16-dioxo-1,2,3,5,6,7,8,9,10,11,13a,14,14a,15,16,16a-hexadecahydrocyclopropa[e]pyrrolo[1,2-a][1,4]diazacyclopentadecin-6-yl)carbamate] | < 5.46 | < 5.46 | 
CC[C@@H]1C[C@H](C)CC/C=C\[C@@H]2C[C@@]2(C(=O)NS(=O)(=O)C2(C)CC2)NC(=O)[C@@H]2C[C@@H](Oc3nc4cc(OC)ccc4nc3C(F)(F)F)CN2C(=O)[C@H]1NC(=O)OC(C)(C)C(F)(F)F [Compound 4244] |  |  | EC50 [1, 5]: 1.01 to 5 nM; EC50 [2, 6]: 1.01 to 5 nM
COc1cnc(O[C@@H]2C[C@H]3C(=O)N[C@]4(C(=O)NS(=O)(=O)C5(CF)CC5)C[C@H]4/C=C\CC[C@H](C)C[C@@H](C)[C@H](NC(=O)OC4(C(F)(F)F)CCCOC4)C(=O)N3C2)c2ccccc12 (stereo partly drawn) [Compound 1057, 3-(trifluoromethyl)tetrahydro-2H-pyran-3-yl((2R,6S,7R,9S,13aS,14aR,16aS,Z)-14a-(((1-(fluoromethyl)cyclopropyl)sulfonyl)carbamoyl)-2-((4-methoxyisoquinolin-1-yl)oxy)-7,9-dimethyl-5,16-dioxo-1,2,3,5,6,7,8,9,10,11,13a,14,14a,15,16,16a-hexadecahydrocyclopropa[e]pyrrolo[1,2-a][1,4]diazacyclopentadecin-6-yl)carbamate] | < 5.46 | < 5.46 | 
COc1cnc(O[C@@H]2C[C@H]3C(=O)N[C@]4(C(=O)NS(=O)(=O)C5(CF)CC5)C[C@H]4CCCC[C@@H](C)C[C@@H](C)[C@H](NC(=O)OC(C)(C)C)C(=O)N3C2)c2ccccc12 [Compound 5115, tert-butyl ((2R,6S,7R,9R,13aR,14aR,16aS)-14a-(((1-(fluoromethyl)cyclopropyl)sulfonyl)carbamoyl)-2-((4-methoxyisoquinolin-1-yl)oxy)-7,9-dimethyl-5,16-dioxooctadecahydrocyclopropa[e]pyrrolo[1,2-a][1,4]diazacyclopentadecin-6-yl)carbamate] |  |  | EC50 [1, 7]: < 5.46 nM; EC50 [2, 8]: < 5.46 nM
COc1ccc2c(O[C@@H]3C[C@H]4C(=O)N[C@]5(C(=O)NS(=O)(=O)C6(C)CC6)C[C@H]5/C=C\CC[C@@H](C)C[C@@H](C)[C@H](NC(=O)OC(C)(C)C)C(=O)N4C3)nc(-c3ccc4c(c3)OCCO4)cc2c1 [Compound 5233, tert-butyl ((2R,6S,7R,9R,13aS,14aR,16aS,Z)-2-((3-(2,3-dihydrobenzo[b][1,4]dioxin-6-yl)-6-methoxyisoquinolin-1-yl)oxy)-7,9-dimethyl-14a-(((1-methylcyclopropyl)sulfonyl)carbamoyl)-5,16-dioxo-1,2,3,5,6,7,8,9,10,11,13a,14,14a,15,16,16a-hexadecahydrocyclopropa[e]pyrrolo[1,2-a][1,4]diazacyclopentadecin-6-yl)carbamate] |  |  | EC50 [1, 7]: < 5.46 nM; EC50 [2, 8]: < 5.46 nM
COc1cnc(O[C@@H]2C[C@H]3C(=O)N[C@]4(C(=O)NS(=O)(=O)C5(CF)CC5)C[C@H]4/C=C\CC[C@@H](C)C[C@@H](C)[C@H](NC(=O)OC4(C(C)C)COC4)C(=O)N3C2)c2ccccc12 [Compound 1054, 3-isopropyloxetan-3-yl ((2R,6S,7R,9R,13aS,14aR,16aS,Z)-14a-(((1-(fluoromethyl)cyclopropyl)sulfonyl)carbamoyl)-2-((4-methoxyisoquinolin-1-yl)oxy)-7,9-dimethyl-5,16-dioxo-1,2,3,5,6,7,8,9,10,11,13a,14,14a,15,16,16a-hexadecahydrocyclopropa[e]pyrrolo[1,2-a][1,4]diazacyclopentadecin-6-yl)carbamate] | < 5.46 | < 5.46 | 
C[C@H]1CC/C=C\[C@@H]2C[C@@]2(C(=O)NS(=O)(=O)C2CC2)NC(=O)[C@@H]2C[C@@H](Oc3nc(OCC(F)F)cc4c(Cl)cccc34)CN2C(=O)[C@@H](NC(=O)OC(C)(C)C(C)(F)F)[C@H](C)C1 [Compound 1111, 3,3-difluoro-2-methylbutan-2-yl((2R,6S,7R,9S,13aS,14aR,16aS,Z)-2-((5-chloro-3-(2,2-difluoroethoxyl)isoquinolin-1-yl)oxy)-14a-((cyclopropylsulfonyl)carbamoyl)-7,9-dimethyl-5,16-dioxo-1,2,3,5,6,7,8,9,10,11,13a,14,14a,15,16,16a-hexadecahydrocyclopropa[e]pyrrolo[1,2-a][1,4]diazacyclopentadecin-6-yl)carbamate] | < 5.46 | < 5.46 | 
CC(C)n1nc(O[C@@H]2C[C@H]3C(=O)N[C@]4(C(=O)NS(=O)(=O)C5(C)CC5)C[C@H]4/C=C\CC[C@@H](C)C[C@@H](C)[C@H](NC(=O)OC(C)(C)C(C)(F)F)C(=O)N3C2)c2ccccc2c1=O [Compound 1016, 3,3-difluoro-2-methylbutan-2-yl((2R,6S,7R,9R,13aS,14aR,16aS,Z)-2-((3-isopropyl-4-oxo-3,4-dihydrophthalazin-1-yl)oxy)-7,9-dimethyl-14a-(((1-methylcyclopropyl)sulfonyl)carbamoyl)-5,16-dioxo-1,2,3,5,6,7,8,9,10,11,13a,14,14a,15,16,16a-hexadecahydrocyclopropa[e]pyrrolo[1,2-a][1,4]diazacyclopentadecin-6-yl)carbamate] | 4.82 to 103 | 4.82 to 103 | 
COc1cc(F)cc2c(O[C@@H]3C[C@H]4C(=O)N[C@]5(C(=O)NS(=O)(=O)C6CC6)C[C@H]5/C=C\CC[C@@H](C)C[C@@H](C)[C@H](NC(=O)OCC5(C)CC5)C(=O)N4C3)nccc12 [Compound 3172, (1-methylcyclopropyl)methyl ((2R,6S,7R,9R,13aS,14aR,16aS,Z)-14a-((cyclopropylsulfonyl)carbamoyl)-2-((7-fluoro-5-methoxyisoquinolin-1-yl)oxy)-7,9-dimethyl-5,16-dioxo-1,2,3,5,6,7,8,9,10,11,13a,14,14a,15,16,16a-hexadecahydrocyclopropa[e]pyrrolo[1,2-a][1,4]diazacyclopentadecin-6-yl)carbamate] | < 5.46 | < 5.46 | EC50 ([1]; HCV genotype 1b replicon luciferase assay, read-out: LE_1b (EC50)): 1.18 nM; EC50 ([2]; HCV genotype 1a replicon luciferase assay, read-out: LE_1a (EC50)): 1.04 nM
COc1cnc(O[C@@H]2C[C@H]3C(=O)N[C@]4(C(=O)NS(=O)(=O)C5(CF)CC5)C[C@H]4/C=C\CC[C@@H](C)C[C@@H](C)[C@H](NC(=O)OC(C)(C)C(F)(F)F)C(=O)N3C2)c2cc(F)ccc12 [Compound 4083] |  |  | EC50 [1, 5]: < 5.46 nM; EC50 [2, 6]: < 5.46 nM
CC[C@@H]1C[C@H](C)CC/C=C\[C@@H]2C[C@@]2(C(=O)NS(=O)(=O)C2(C)CC2)NC(=O)[C@@H]2C[C@@H](Oc3nc(OC)cc4ccccc34)CN2C(=O)[C@H]1NC(=O)OC(C)(C)C(F)(F)F [Compound 6007, 1,1,1-trifluoro-2-methylpropan-2-yl((2R,6S,7R,9R,13aS,14aR,16aS,Z)-7-ethyl-2-((3-methoxyisoquinolin-1-yl)oxy)-9-methyl-14a-(((1-methylcyclopropyl)sulfonyl)carbamoyl)-5,16-dioxo-1,2,3,5,6,7,8,9,10,11,13a,14,14a,15,16,16a-hexadecahydrocyclopropa[e]pyrrolo[1,2-a][1,4]diazacyclopentadecin-6-yl)carbamate] |  |  | EC50 [1, 7]: < 5.46 nM; EC50 [2, 8]: < 5.46 nM
COc1ccc2c(O[C@@H]3C[C@H]4C(=O)N[C@]5(C(=O)NS(=O)(=O)C6(CF)CC6)C[C@H]5/C=C\CC[C@H](C)C[C@@H](C)[C@H](NC(=O)OC(C)(C)C(F)(F)F)C(=O)N4C3)nc(OC)cc2c1 [Compound 1126, 1,1,1-trifluoro-2-methylpropan-2-yl((2R,6S,7R,9S,13aS,14aR,16aS,Z)-2-((3,6-dimethoxyisoquinolin-1-yl)oxy)-14a-(((1-(fluoromethyl)cyclopropyl)sulfonyl)carbamoyl)-7,9-dimethyl-5,16-dioxo-1,2,3,5,6,7,8,9,10,11,13a,14,14a,15,16,16a-hexadecahydrocyclopropa[e]pyrrolo[1,2-a][1,4]diazacyclopentadecin-6-yl)carbamate] | < 5.46 | 4.82 to 103 | 
CC[C@@H]1C[C@H](C)CC/C=C\[C@@H]2C[C@@]2(C(=O)NS(=O)(=O)C2CC2)NC(=O)[C@@H]2C[C@@H](Oc3nccc4c(OC)cccc34)CN2C(=O)[C@H]1NC(=O)OC(C)(C)C [Compound 3026, tert-butyl ((2R,6S,7R,9R,13aS,14aR,16aS,Z)-14a-((cyclopropylsulfonyl)carbamoyl)-7-ethyl-2-((5-methoxyisoquinolin-1-yl)oxy)-9-methyl-5,16-dioxo-1,2,3,5,6,7,8,9,10,11,13a,14,14a,15,16,16a-hexadecahydrocyclopropa[e]pyrrolo[1,2-a][1,4]diazacyclopentadecin-6-yl)carbamate] | < 5.46 | < 5.46 | 
